Experiments:
MeCP2-deficient mice [1] = experiment: Evaluation of lifetime using RTT model mice; type: in vivo; settings: male MeCP2-deficient mice, 20 ng/g body weight, drinking water twice a week
Experimental: For the test, 4-week-old male MeCP2-deficient mice were used. The MeCP2-deficient mice were divided into the following two groups: a KIT-13 administration group (KO-KIT-13, n=14) and a control group (KO, n=28). The body weight of each mouse was measured in advance. For the KIT-13 administration group, KIT-13 was suspended in water by ultrasonication, and administered twice a week by drinking-water administration such that 20 ng/g body weight of KIT-13 was taken. On the other hand, in the control group, only water was given in the same manner.

p65 (NFkB) in BV2 cells = experiment: LPS-induced nuclear p65 expression in BV2 cells (Western blotting); type: cell-based, mice; settings: 5 μg/mL, 16 hours pre-culture, LPS (1 g/mL) 6 hours, 20 μg nuclear protein, n=2, FIG. 1
Experimental: (§1) Under conditions where KIT-2 or KIT-13 was present (5 μg/mL), or where neither KIT-2 nor KIT-13 was present, BV2 cells, which are microglial cells in mice, were cultured for 16 hours in DMEM medium supplemented with 2% fetal bovine serum (FBS). Thereafter, treatment with LPS ([…]) was carried out for 6 hours. Subsequently, nuclear protein was extracted from the cells, and p65 was detected by the Western blotting method. The antibody used for the detection was an anti-p65 NFkB antibody (Ref no. 51-0500, manufactured by Invitrogen).

IL-1β gene in BV2 cells = experiment: LPS-induced IL-1β gene expression in BV2 cells (PCR); type: cell-based, mice; settings: 5 μg/mL, 16 hours pre-culture, LPS (1 μg/mL) 2 hours, vs. no addition, β-actin internal standard, FIG. 3
Experimental: Under conditions where sPIs or KIT-13 was present (5 μg/mL), or where neither sPIs nor KIT-13 was present, BV2 cells were cultured for 16 hours in DMEM medium supplemented with 2% fetal bovine serum (FBS). Thereafter, treatment with LPS (1 μg/mL) was carried out for 2 hours. Subsequently, cellular RNA was extracted using the TRIzol (trademark) reagent, and cDNA was prepared from the RNA using a PrimeScript (trademark) 1st strand cDNA Synthesis Kit (manufactured by Takara; 6110). Using TaKaRa Taq (trademark) (manufactured by Takara; R110A), the expression levels of the IL-1β gene and, as an internal standard, the β-actin gene were quantified by polymerase chain reaction (PCR).
The base sequences of the forward primer and the reverse primer for the IL-1ß gene are shown in SEQ ID NOs: 1 and 2, respectively. The base sequences of the forward primer and the reverse primer for the β-actin gene are shown in SEQ ID NOs: 3 and 4, respectively.

[2] = Evaluation of body weight of MeCP2-deficient mice; type: in vivo; settings: male MeCP2-deficient mice, 20 ng/g body weight, drinking water
Experimental: MeCP2-deficient mice to which KIT-13 was administered were subjected to measurement of the body weight every week, and changes in the body weight were evaluated. For the test, 4-week-old male MeCP2-deficient mice were used. The MeCP2-deficient mice were divided into the following two groups: a KIT-13 administration group (KO-KIT-13, n=14) and a control group (KO, n=21). In the KIT-13 administration group, KIT-13 was administered at 20 ng/g body weight by drinking-water administration in the same manner as in Test Example 3. In the control group, only water was given in the same manner.

IL-1β in BV2 cells = experiment: LPS-induced IL-1β protein in BV2 cell culture supernatant (ELISA); type: cell-based, mice; settings: 5 μg/mL, 16 hours pre-culture, LPS (1 g/mL) 6 hours, n=4, FIG. 2
Experimental: as §1
In addition, 20 μL of the cell culture supernatant after the LPS treatment was subjected to detection of the inflammatory cytokine IL-1ß by the ELISA method using a mouse IL-1β ELISA kit (manufactured by R&D Systems; Catalog No. DY401-05).

MeCP2-deficient mice [3] = experiment: RTT-like scoring using RTT model mice; type: in vivo; settings: male MeCP2-deficient mice, 20 ng/g body weight, drinking water, scored weekly from 5 weeks old, FIG. 5
Experimental: RTT-like symptoms in MeCP2-deficient mice to which KIT-13 was administered were evaluated by RTT-like scoring. For the test, 4-week-old male MeCP2-deficient mice were used. The MeCP2-deficient mice were divided into the following two groups: a KIT-13 administration group (KO-KIT-13, n=14) and a control group (KO, n=15). In the KIT-13 administration group, KIT-13 was administered at 20 ng/g body weight by drinking-water administration in the same manner as in Test Example 3. In the control group, only water was given in the same manner.
The RTT-like scoring was carried out once a week from 5 weeks old, for the following items 1 to 6.
Each mouse was observed after gently placing the mouse on a platform. • 0 points: Same as the wild type. • 1 point: Lower mobility compared to the wild type. (The period of freezing after the first placement on the platform is longer, or the period during which the mouse is standing still is longer.) • 2 points: No spontaneous movement after the placement on the platform. The mouse can move in response to mild stimuli or food placed nearby.
• 0 points: Same as the wild type. • 1 point: Due to a severe reduction in the pelvis, the mouse spreads the hindlimbs apart during walking or running, compared to the wild type. Waddling gait.
Staggering gait. • 2 points: More remarkable abnormality. […]

[4] = system: c57BL6J mice with LPS-induced memory impairment; experiment: Water maze test in LPS-induced memory impairment model mice; type: in vivo; settings: 10 mg/50 kg/day in drinking water for 30 days plus 7 days LPS (250 mg/kg/day), sixth trial, P<0.01, n=5, FIG. 7
Experimental: The effect of KIT-13 on LPS-induced memory impairment in mice was studied. Eight-week-old male c57BL6J mice (5 individuals per group; n=5) were allowed to drink KIT-13 for 30 days at a dose of 10 mg/50 kg/day, and then LPS treatment (250 mg/kg/day) was carried out for 7 days while the mice were similarly allowed to drink KIT-13. Thereafter, a water maze test was carried out for 2 days (three trials per day).
The time required for the mice to reach an escape platform (arrival time) was as illustrated in FIG. 7. Intergroup comparison was carried out using the ANOVA test and the Bonferroni post-hoc test. […] Thus, KIT-13 is effective for improvement of the brain function (cognitive function).

CCCCC/C=C\C/C=C\C/C=C\C/C=C\CCCC(=O)O[C@H](COCCCCCCCCCCCCCCCCCC)COP(=O)(O)OCCN [KIT-13]
survival rate vs control group (MeCP2-deficient mice [1]; FIG. 4): higher survival rate than the control group
number of days required for the survival rate to decrease to 50% (MeCP2-deficient mice [1]; n=14, control 64.5 days): 90 days
LPS-induced nuclear accumulation of p65 (p65 (NFkB) in BV2 cells): remarkably suppressed
expression of the IL-1β gene (IL-1β gene in BV2 cells): significantly suppressed
toxicity (concluded from body weight) [2]: non-toxic
changes in the body weight vs control group ([2]; weekly measurement, t-test, FIG. 6): No statistical difference
LPS-induced expression of the inflammatory cytokine IL-1β (protein per 5000 cells) (IL-1β in BV2 cells): remarkably decreased
RTT-like score (MeCP2-deficient mice [3]): reduced the RTT-like score
memory (arrival time at escape platform) vs LPS group [4]: showed improvement in the memory

Reference: patent publication US20260166061A1, “COMPOUND, RACEMATE OF SAID COMPOUND, SALT OF SAID COMPOUND OR SAID RACEMATE, COMPOSITION, ANTI-INFLAMMATORY AGENT, THERAPEUTIC AGENT FOR DEMENTIA, AND THERAPEUTIC AGENT FOR RETT SYNDROME” (INSTITUTE OF RHEOLOGICAL FUNCTION OF FOOD CO., LTD., priority 2021, published 2026)
